In US8143373B2, “Carbohydrate-containing pan cancer marker” (Vancouver Biotech Ltd., priority 2007, dated 2012):
Where “and” joins values, the source holds several entries; their conditions need not be identical. Identical values can stand only once.

Legend:
[1] = test system: OC-3-VGH ovarian cancer cells tumors; assay: Tumor growth in nude mice implanted subcutaneously with cancer cells; type: in vivo; conditions: for Percent (average tumor weight, negative control = 100) / Average of Tumor Weight: n=4; for Body Weight (individual mouse) / Tumor Weight (individual mouse): mice #1-4
Description: Groups of four nude mice were implanted subcutaneously with 2×10^6 cells in 0.2 ml per mouse at sites near the breast for a growth period of 2-3 weeks. Treatments were performed after visible apparent growth of tumors. The radioactive labeling of the mAb was at a specific radioactivity of 12.5 μCi/mg.
The mice were sacrificed on day 16 after treating with antibody, and the size of tumors in each mouse was determined by weight together with the body weight.

[2] = test system: CA215 antigen on OC-3-VGH cancer cells; assay: Direct binding enzyme immunoassay of RP215-HRP to OC-3-VGH cancer cell-coated wells (NaIO4 treatment, goat anti-human IgG competition); conditions: for Optical Density at 450 nm / percent maximum binding: RP215-HRP 10 ug/ml + normal mouse IgG 10 ug/ml
Description: PBS-washed OC-3-VGH cancer cells (conc. 1×10^6 cells/ml) were incubated with 100 mM NaIO4 for 30 minutes, the cells were washed with PBS containing 0.5% BSA, and then dried on microwells at 1×10^4 cells/well. The cell-coated microwells were then blocked with 0.5% BSA in PBS and direct binding enzyme immunoassays using RP215 labeled with horseradish peroxidase (RP215-HRP) were performed at 37° C. for one hour followed by extensive washes and color development with TMB substrate. For comparison wells coated with cancer cells without NaIO4 treatments served as control.

[3] = test system: OC-3-VGH ovarian cancer cells; assay: Growth of OC-3-VGH cell cultures in vitro; type: cell-based, human; conditions: addition to cell cultures of OC-3-VGH ovarian cancer cells
Description: Cell culture growth was also not inhibited either by human IgG or goat anti-human IgG in vitro up to a concentration of 200 μg/ml in the cell culture.

Goat Anti-human IgFab = assay: Binding of well-coated antibodies to detecting antibody
CA215 = assay: Sandwich EIA with coated RP215 forms, OC-3-VGH shed medium and HRP-labeled RP215; type: binding, human; conditions: for Relative Signal Intensity in Sandwich EIA: antibody coated at 5 μg/ml, 450 nm
Description: Each was coated separately at 5 μg/ml overnight in microwells. The microwells were treated with concentrated cell culture shed medium of OC-3-VGH cells (to supply CA215) and then with HRP-labeled RP215 as a detection antibody. The detection antibody was incubated with each well for 60 min. at 37° C. After 30 min, TMB substrate was added for 20 min. of color development and, after stopping the reaction, the intensity determined at 450 nm in an ELISA reader. In some cases, 10 μg/ml human IgG was added to the wells, but this had no evident effect on the signal intensity.

[4] = test system: CA215 present in OC-3-VGH cancer cells; assay: Secondary two-step ELISA, direct binding of anti-immunoglobulin antibodies to CA215 in OC-3-VGH cancer cells; design: species or system human; conditions: 1.125 ug/ml primary antibody; ODn = corresponding normal mouse IgG concentration
Description: In this case the experiment was conducted as a secondary two-step ELISA with primary antibodies incubated with sample overnight at room temperature, followed by goat antibody Anti-Mouse IgG-ALP, for 1 hour at 37° C. ODs is the OD value of sample and ODn is the OD value of corresponding normal mouse IgG concentration.

Goat Anti-mouse IgG = assay: Binding of well-coated antibodies to detecting antibody; conditions: for Relative Intensity: detecting antibody Goat Anti-mouse IgG, RP215 adjusted to 100%
Text: In row 1, the results were normalized to 100% for the interaction between RP215 and goat anti-mouse IgG. As shown in the first row, goat anti-mouse IgG bound comparatively poorly to the humanized or chimeric human forms.

Goat Anti-human IgG = assay: as above; conditions: for Relative Intensity: detecting antibody Goat Anti-human IgG, hRP215 adjusted to 100%
Text: In row 2, when goat anti-human IgG is used as a detector, and humanized RP215 was set at 100%, decreased binding was shown for human IgG, and very reduced binding for the chimeric or murine RP215.

Goat Anti-human IgFc = assay: as above
[5] = 60 mg/Kg, sacrificed day 16 after treating
[6] = high dose 10 mg/Kg (I131-labeled: + 125 μCi), day 16, 10 mg/kg, in g (unit assumed)
[7] = low dose 2 mg/Kg (I131-labeled: + 25 μCi), day 16, 2 mg/kg, in g (unit assumed)

Molecule: O=P1(N(CCCl)CCCl)NCCCO1 (centres unmarked) [Cyclophosphonamide, reference compound]
- Percent (average tumor weight, negative control = 100) ([1]; 60 mg/Kg, day 16): 73.2%
- Average of Tumor Weight ([1]; 60 mg/Kg, day 16, in g (unit assumed)): 0.09575
- Body Weight (individual mouse) [1, 5]: 21.18 (2×) and 21.42 and 23.37
- Tumor Weight (individual mouse) [1, 5]: 0.098 (2×) and 0.096 and 0.091

Molecule: RP215-HRP: RP215 labeled with horseradish peroxidase
- binding between RP215-HRP and cancer cell-coated wells treated with periodate (in words) ([2]; 100 mM NaIO4 for 30 minutes vs untreated cells): drastically reduced
- Optical Density at 450 nm ([2]; with NaIO4 treatment): 0.797
- percent maximum binding ([2]; with NaIO4 treatment): 37%
- Optical Density at 450 nm ([2]; without NaIO4 treatment): 2.153
- percent maximum binding ([2]; without NaIO4 treatment): 100%

Molecule: RP215: monoclonal antibody (mouse IgG) to tumor-associated antigen CA215; hybridoma deposited as ATCC HB10095
- effect on growth of cell cultures (in words) [3]: no effect on growth
- Body Weight (individual mouse) [1, 6]: 21.43 and 23.05 and 22.15 and 23.56
- Tumor Weight (individual mouse) [1, 6]: 0.088 and 0.077 and 0.095 and 0.086
- Percent (average tumor weight, negative control = 100) ([1]; high dose 10 mg/Kg (I131-labeled: + 125 μCi), day 16): 66.2%
- Average of Tumor Weight ([1]; high dose 10 mg/Kg (I131-labeled: + 125 μCi), day 16, in g (unit assumed)): 0.0865
- Body Weight (individual mouse) [1, 7]: 21.76 and 20.57 and 21.98 and 22.64
- Tumor Weight (individual mouse) [1, 7]: 0.103 and 0.122 and 0.080 and 0.104
- Percent (average tumor weight, negative control = 100) ([1]; low dose 2 mg/Kg (I131-labeled: + 25 μCi), day 16): 78.2%
- Average of Tumor Weight ([1]; low dose 2 mg/Kg (I131-labeled: + 25 μCi), day 16, in g (unit assumed)): 0.1022
- tumor growth in vivo (in words) ([1]; nude mice): successful in inhibiting tumor growth in vivo
- Relative Intensity (Goat Anti-human IgFab): <1%
- Relative Signal Intensity in Sandwich EIA (CA215; 10 μg/ml Human IgG): 100%
- Relative Signal Intensity in Sandwich EIA (CA215; No Human IgG): 100%
- ODs405/ODn405 [4]: 11.6
- binding to goat anti-mouse IgG (in words) (Goat Anti-mouse IgG; antibody-coated microwells): strong binding
- Relative Intensity (Goat Anti-mouse IgG): 100%
- binding to goat anti-human IgG (in words) (Goat Anti-human IgG; antibody-coated microwells, alkaline phosphatase-labeled goat anti-human IgG): no binding
- Relative Intensity (Goat Anti-human IgG): <0.5%
- Relative Intensity (Goat Anti-human IgFc): <0.5%

Molecule: chRP215: chimeric RP215 mAb with human constant regions and the murine variable regions of RP215
- Relative Intensity (Goat Anti-human IgFab): 10%
- Relative Signal Intensity in Sandwich EIA (CA215; 10 μg/ml Human IgG): 15.4%
- Relative Signal Intensity in Sandwich EIA (CA215; No Human IgG): 14.5%
- binding affinity to CA215 compared with RP215 (in words) (CA215; sandwich EIA): lower binding affinity
- Relative Intensity (Goat Anti-mouse IgG): ~7%
- Relative Intensity (Goat Anti-human IgG): ~10%
- Relative Intensity (Goat Anti-human IgFc): 45%
